These results are taken from PMC9118553, “In Vivo Bioconcentration of 10 Anionic Surfactants in Rainbow Trout Explained by In Vitro Data on Partitioning and S9 Clearance” (Environmental Science & Technology, 2022).

Like-named read-outs stand apart in the source and are kept apart here.

The nature of data set [1]: In vivo bioconcentration experiment with a mixture of anionic surfactants, flow-through aquaria, 10 °C, pH 7.8. Also on record: species or system rainbow trout. Particulars: rainbow trout, whole fish homogenate, other: waterborne exposure in flow-through aquaria; for k el: read-out: Elimination rate constant kT (converted). In short, it runs like this: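 Juvenile rainbow trout exposed to a 10-surfactant mixture for 4 days, then 7-day depuration, in flow-through aquaria at 10 °C, pH 7.8. Whole-fish homogenates and water analysed by LC-MS/MS against BEHP internal standard. kU, kT and BCF (=kU/kT) estimated by joint Bayesian model including water-concentration uncertainty.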

Another data set relates to rainbow trout. Particulars: rainbow trout carcass; cited from earlier work.
On the set-up of data set [2]: method as in REACH dossier. Particulars: method as noted in the cell (shake flask, solubility ratio, HPLC, BCFBAF, pH); ref REACH dossier; cited from earlier work.
The conditions of data set [3]: ref REACH dossier; cited from earlier work.

Regarding `CCCCC(CC)COC(=O)CC(C(=O)OCC(CC)CCCC)S(=O)(=O)O` (centres unmarked) [DOSS, bis(2-ethylhexyl)sulfosuccinate], the k el in data set [1] (26 μg L^–1, pH 7.8, determined using nominal concentrations in water) was 1.56e-05 s⁻¹; in data set [1] (26 μg L^–1, pH 7.8, from measured concentrations in water, Bayesian estimate, 95% credible interval in brackets), 1.75e-05 s⁻¹; in data set [1] (pH 7.8, measured concentrations in water, simpler estimation method (Text S3), 95% confidence intervals in brackets), 1.78e-05 s⁻¹. Further, in data set [1] (26 μg L^–1, pH 7.8, elimination phase, 97 h, individual fish), the concentration at 97 h came to 57 ng/g. In addition, the concentration at 98 h in data set [1] (26 μg L^–1, pH 7.8, elimination phase, 98 h, individual fish) worked out at 47 ng/g. In addition, the concentration at 103 h in data set [1] (26 μg L^–1, pH 7.8, elimination phase, 103 h, individual fish) was determined as 35 ng/g. Further, in data set [1] (26 μg L^–1, pH 7.8, elimination phase, 128 h, individual fish), the concentration at 128 h came to 13.9 ng/g. In addition, in data set [1] (26 μg L^–1, pH 7.8, exposure phase, 2 h, individual fish), the concentration at 2 h is 8.5 ng/g. In addition, the concentration at 3 h in data set [1] (26 μg L^–1, pH 7.8, exposure phase, 3 h, individual fish) was 14.9 ng/g. In addition, in data set [1] (26 μg L^–1, pH 7.8, exposure phase, 6 h, individual fish), the concentration at 6 h was determined as 36 ng/g. Further, the concentration at 24 h in data set [1] (26 μg L^–1, pH 7.8, exposure phase, 24 h, individual fish) stood at 66 ng/g. For the same molecule, the concentration at 48 h in data set [1] (26 μg L^–1, pH 7.8, exposure phase, 48 h, individual fish) is 48 ng/g. In addition, the concentration at 72 h in data set [1] (26 μg L^–1, pH 7.8, exposure phase, 72 h, individual fish) was 50 ng/g. The concentration at 96 h in data set [1] (26 μg L^–1, pH 7.8, exposure phase, 96 h, individual fish) was 84 ng/g. In addition, in the data set with rainbow trout, the BCF is listed as 3.78 L kg^–1. Also, in data set [2], the LogKow is 2. The “Degradation information ~28d-sludge test (% degradable)” value in data set [3] is given as 91.2-100%.
